Structures can show the parent of a compound that is named as a salt.

Here are results for 26 molecules from patent US10947213B1 (Merck Patent GmbH, priority 2015, dated 2021).

The target in this test is T1, TLR7/NFKb HEK cells (Homo sapiens, UniProt Q9NYK1).
T1 construct: expressed in transfected cells; host or cells: HEK cells (TLR7/NFKb reporter line)
T1 sequence (Q9NYK1 27-1049): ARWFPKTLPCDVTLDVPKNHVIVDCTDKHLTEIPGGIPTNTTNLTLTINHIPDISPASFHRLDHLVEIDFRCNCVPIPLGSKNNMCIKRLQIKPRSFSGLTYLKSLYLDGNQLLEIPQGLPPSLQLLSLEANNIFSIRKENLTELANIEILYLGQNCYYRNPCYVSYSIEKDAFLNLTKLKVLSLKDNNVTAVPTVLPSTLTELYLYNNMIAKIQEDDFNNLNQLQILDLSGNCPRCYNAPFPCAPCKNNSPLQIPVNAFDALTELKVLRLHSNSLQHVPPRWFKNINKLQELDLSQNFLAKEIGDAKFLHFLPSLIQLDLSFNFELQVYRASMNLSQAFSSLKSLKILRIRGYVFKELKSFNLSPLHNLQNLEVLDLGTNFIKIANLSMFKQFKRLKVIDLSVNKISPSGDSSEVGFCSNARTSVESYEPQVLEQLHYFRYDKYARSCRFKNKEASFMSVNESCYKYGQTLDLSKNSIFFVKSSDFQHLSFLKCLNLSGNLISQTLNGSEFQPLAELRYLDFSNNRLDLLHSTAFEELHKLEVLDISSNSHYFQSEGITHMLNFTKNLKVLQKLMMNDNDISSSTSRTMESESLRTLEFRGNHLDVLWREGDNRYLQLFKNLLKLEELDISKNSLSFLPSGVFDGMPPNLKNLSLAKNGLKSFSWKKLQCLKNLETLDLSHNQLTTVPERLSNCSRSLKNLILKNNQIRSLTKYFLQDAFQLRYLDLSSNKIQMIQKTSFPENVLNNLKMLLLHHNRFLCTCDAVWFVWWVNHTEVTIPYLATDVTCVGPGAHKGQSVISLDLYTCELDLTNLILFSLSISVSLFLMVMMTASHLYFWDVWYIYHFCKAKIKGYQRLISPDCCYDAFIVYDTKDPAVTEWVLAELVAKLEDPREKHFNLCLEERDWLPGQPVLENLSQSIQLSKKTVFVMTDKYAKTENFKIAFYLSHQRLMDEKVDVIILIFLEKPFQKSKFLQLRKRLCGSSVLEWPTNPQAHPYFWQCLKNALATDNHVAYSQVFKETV
The test can be described thus: HEK Cell Assay (TLR7/NFKb reporter, Steady-Glo luciferase readout). The following applies: 30 min compound preincubation, then R*48 agonist for 5 hours, read-out: Potency. The class given is cell-based. The method, then:
Example 142: HEK Cell Assay
Into 384 CulturePlates (Corning 3707) was placed 5000 c/w of TLR7/NFKb HEK cells in 30 uL DMEM without Phenil red (gibco #31053) and 10% i.a. FCS and 2 mM L-ZGLutamin. The cells were incubated for 24 h at 37° C., 10% carbon dioxide and 90% relative humidity. 3 uL of controls, standards, and compounds were dispensed into wells, incubated for 30 min then 3 uL of R*48 agonist in 20 mM Hepes was added. After incubation for 5 hours, they were allowed to stand at room temperature for 15 min. To this was added 10 uL of Steady-Glo substrate reagent and shake assay plate for 5 min at 1500 rpm. The assay plate was allowed to sit for 30 min at room temperature and then the plate was read on EnVision.
In the case of `C[C@H]1C[C@@H](NC(=O)CO)CN(c2ccc(Cl)c3ncccc23)C1` [Compound 263, N-[(3R,5S)-1-(8-chloroquinolin-5-yl)-5-methylpiperidin-3-yl]-2-hydroxyacetamide], the IC50 was < 1 µM.

For the molecule `CN1CCC(CC(=O)N[C@H]2C[C@@H](C(F)(F)F)CN(c3ccc(C#N)c4ncccc34)C2)CC1` (relative stereo) [Compound 478, cis-N-[1-(8-Cyano-quinolin-5-yl)-5-trifluoromethyl-piperidin-3-yl]-2-(1-methyl-piperidin-4-yl)-acetamide], the IC50 is < 1 µM.

Take `C[C@H]1C[C@@H](NC(=O)CNS(C)(=O)=O)CN(c2ccc(C#N)c3nccnc23)C1` [Compound 140, N-[(3R,5S)-1-(8-cyanoquinoxalin-5-yl)-5-methylpiperidin-3-yl]-2-methanesulfonamidoacetamide]: the IC50 is < 1 µM.

`CC(C)[C@H](O)C(=O)N[C@H]1C[C@@H](C(F)(F)F)CN(c2ccnc3nccnc23)C1` [Compound 90, (2S)-2-hydroxy-3-methyl-N-[(3S,5R)-1-[pyrido[2,3-b]pyrazin-8-yl]-5-(trifluoromethyl)piperidin-3-yl]butanamide hydrochloride]: the IC50 is > 10 µM.

Take `C[C@H]1C[C@@H](NC2CCOC2)CN(c2ccnc3nccnc23)C1` (stereo partly drawn) [Compound 139, (3R,5S)-5-methyl-N-(oxolan-3-yl)-1-[pyrido[2,3-b]pyrazin-8-yl]piperidin-3-amine]: the IC50 was > 10 µM.

Take `C[C@H]1C[C@@H](NC(=O)CC2CNC2)CN(c2ccc(C(F)F)c3ncccc23)C1` [Compound 312, 2-(azetidin-3-yl)-N-[(3R,5S)-1-[8-(difluoromethyl)quinolin-5-yl]-5-methylpiperidin-3-yl]acetamide]: the IC50 fell in the range of 1 to 10 µM.

As to `C[C@@H]1CN(c2ccnc3nccnc23)C[C@H](CN2CCC(N3CCCC3)CC2)O1` [Compound 56, (2R,6S)-2-methyl-4-(pyrido[2,3-b]pyrazin-8-yl)-6-((4-(pyrrolidin-1-yl)piperidin-1-yl)methyl)morpholine], the IC50 was 1 to 10 µM.

Turning to `C[C@H]1C[C@@H](NC(=O)Cc2c[nH]cn2)CN(c2ccnc3nccnc23)C1` [Compound 131, 2-(1H-imidazol-4-yl)-N-[(3R,5S)-5-methyl-1-[pyrido[2,3-b]pyrazin-8-yl]piperidin-3-yl]acetamide], the IC50 is > 10 µM.

For the molecule `N#Cc1ccc(N2CC(N)CC(C(F)(F)F)C2)c2nccnc12` (single isomer, unassigned) [Compound 83], the IC50 was < 1 µM.

On to `C[C@H]1C[C@@H](N)CN(c2ccnc3nccnc23)C1` [Compound 10, (3R,5S)-5-methyl-1-(pyrido[2,3-b]pyrazin-8-yl)piperidin-3-amine], for which the IC50 is < 1 µM.

On to `CC(C)[C@@H](O)C(=O)N[C@H]1CN(c2ccc(C#N)c3nccnc23)CC(C)(C)C1` [Compound 213, (2R)—N-[(3R)-1-(8-cyanoquinoxalin-5-yl)-5,5-dimethylpiperidin-3-yl]-2-hydroxy-3-methylbutanamide], for which the IC50 was < 1 µM.

On to `C[C@H]1C[C@@H](NC(=O)CC(C)(C)C)CN(c2ccc(C#N)c3nccnc23)C1` [Compound 40, N-((3R,5S)-1-(8-cyanoquinoxalin-5-yl)-5-methylpiperidin-3-yl)-3,3-dimethylbutanamide], for which the IC50 is < 1 µM.

As for `C[C@H]1C[C@@H](NC(=O)C2CC(F)(F)C2)CN(c2ccc(C#N)c3nccnc23)C1` [Compound 235, N-[(3R,5S)-1-(8-cyanoquinoxalin-5-yl)-5-methylpiperidin-3-yl]-3,3-difluorocyclobutane-1-carboxamide], the IC50 was < 1 µM.

`Cc1ncc(N2C[C@@H](C)C[C@@H](N)C2)c2cccnc12` [Compound 553, (3R,5S)-5-methyl-1-(8-methyl-1,7-naphthyridin-5-yl)piperidin-3-amine]: the IC50 was < 1 µM.

As to `COCCN[C@@H]1C[C@H](C)CN(c2ccc(C(N)=O)c3ncccc23)C1` [Compound 183, 5-[(3R,5S)-3-[(2-methoxyethyl)amino]-5-methylpiperidin-1-yl]quinoline-8-carboxamide], the IC50 is > 10 µM.

Regarding `COc1ccc(N2C[C@@H](C)C[C@@H](NC(=O)CN(C)C)C2)c2nccnc12` [Compound 203, 2-(dimethylamino)-N-[(3R,5S)-1-(8-methoxyquinoxalin-5-yl)-5-methylpiperidin-3-yl]acetamide], the IC50 lay in the range of 1 to 10 µM.

`C[C@H]1C[C@@H](NC(=O)CC2CCCN(C)C2)CN(c2ccc(C(F)F)c3nccnc23)C1` (stereo partly drawn) [Compound 318, N-[(3R,5S)-1-[8-(difluoromethyl)quinoxalin-5-yl]-5-methylpiperidin-3-yl]-2-(1-methylpiperidin-3-yl)acetamide]: the IC50 was < 1 µM.

For `CN1CCC(NC2CC(C(F)(F)F)CN(c3ccc(C#N)c4nccnc34)C2)C1=O` (single isomer, unassigned) [Compound 226], the IC50 was < 1 µM.

Take `C[C@H]1C[C@@H](NC(=O)CN2CCCN(C)CC2)CN(c2ccc(C(F)F)c3ncccc23)C1` [Compound 314, N-[(3R,5S)-1-[8-(difluoromethyl)quinolin-5-yl]-5-methylpiperidin-3-yl]-2-(4-methyl-1,4-diazepan-1-yl)acetamide]: the IC50 is < 1 µM.

For the molecule `C[C@H]1C[C@@H](NC(=O)CC2(C)CCN(C)CC2)CN(c2ccc(C#N)c3nccnc23)C1` [Compound 233, N-[(3R,5S)-1-(8-cyanoquinoxalin-5-yl)-5-methylpiperidin-3-yl]-2-(1,4-dimethylpiperidin-4-yl)acetamide], the IC50 is < 1 µM.

In the case of `CN(C(=O)CN1CCOCC1)[C@H]1C[C@@H](C2CC2)CN(c2ccc(C(F)(F)F)c3ncccc23)C1` (relative stereo) [Compound 337, cis-N-[5-cyclopropyl-1-[8-(trifluoromethyl)quinolin-5-yl]piperidin-3-yl]-N-methyl-2-(morpholin-4-yl)acetamide], the IC50 is > 10 µM.

Regarding `CN(C)CC(=O)NC1CN(c2ccc(C#N)c3ncccc23)CC(F)(F)C1` (single isomer, unassigned) [Compound 449], the IC50 is < 1 µM.

As for `CNC(=O)[C@@H]1C[C@@H](C)CN(c2ccc(C#N)c3nccnc23)C1` (relative stereo) [Compound 542, trans-1-(8-Cyano-quinoxalin-5-yl)-5-methyl-piperidine-3-carboxylic acid methylamide], the IC50 was in the range of 1 to 10 µM.

On to `C[C@H]1C[C@@H](NC(=O)C(C)(C)C2CCN(C)CC2)CN(c2ccc(C(F)(F)F)c3nccnc23)C1` [Compound 355, 2-methyl-N-[(3R,5S)-5-methyl-1-[8-(trifluoromethyl)quinoxalin-5-yl]piperidin-3-yl]-2-(1-methylpiperidin-4-yl)propanamide], for which the IC50 was < 1 µM.

Regarding `CN[C@@H]1C[C@H](C)CN(c2ccc(C#N)c3nccnc23)C1` [Compound 16, 8-((3S,5R)-3-methyl-5-(methylamino)piperidin-1-yl)quinoxaline-5-carbonitrile hydrochloride], the IC50 was < 1 µM.

For the molecule `N#Cc1ccc(N2C[C@H](NC(=O)NCC3CC(F)(F)C3)C[C@H](C(F)(F)F)C2)c2cccnc12` [Compound 580, 1-[(3R,5S)-1-(8-Cyano-quinolin-5-yl)-5-trifluoromethyl-piperidin-3-yl]-3-(3,3-difluoro-cyclobutylmethyl)-urea], the IC50 lay within 1 to 10 µM.
